≈ marks a conversion by molar mass, not a printed value.

The test system of one experiment is SK-BR3. Put plainly: Inhibition of cancer cell growth as measured by cell number (Sulforhodamine B). The experiment is classed as cell-based. Particulars: Homo sapiens, SK-BR-3; 48 hours exposure. How it is done:
(§1) Human tumor cell lines are plated in 96-well plates (250 µl/well, 1-6 x 10^4 cells/ml) in RPMI 1640 medium, containing 5% FBS (Fetal Bovine Serum). Twenty four hours after plating, test compounds are added at various concentrations. After 48 hours exposure to test compounds, cells are fixed with trichloroacetic acid, and stained with Sulforhodamine B. After washing with trichloroacetic acid, bound dye is solubilized in 10 mM Tris base and optical density is determined using plate reader. Under conditions of the assay the optical density is proportional to the number of cells in the well. […] The test procedure is described in detail by Philip Skehan et. al, J. Natl. Canc. Inst., 82, 1107-1112 (1990). […] Information about some of the cell lines used in these test procedures is available from the American Type Tissue Collection: Cell Lines and Hybridomas, 1994 Reference Guide, 8th Edition.

The next experiment relates to SW620. The experiment is described as above. The class given is cell-based. Particulars: Homo sapiens, SW-620; 48 hours exposure. As for the experimental part: as §1
For another experiment, the system named is MDA-MB-435. Described as above. The class given is cell-based. To be noted: Homo sapiens, 48 hours exposure. How it is done:
as §1

Another experiment deals with A431. Described as above. The experiment is classed as cell-based. Particulars: Homo sapiens, A-431; 48 hours exposure. As for the experimental part: as §1
Experiment [1] deals with Human adenocarcinoma cell line LoVo. In words: Cell based screen for inhibitors of Raf kinase, quantitative assay. To be noted: 96 h, four days incubation. As for the experimental part: (§2) • Cell Lines: Human adenocarcinoma cell line LoVo which is known to be growth inhibited by low nM concentrations of a reference standard inhibitor of Ras and human adenocarcinoma cell line CaCo-2, which is known to be growth resistant to the same reference compound. • Cell Media : RPMI 1640 with 10% Fetal Bovine Serum supplemented with L-glutamine and Pennicilin/Streptomycin. • Compounds: Supplied usually as a 10 mM stock in 100% DMSO. • Normal Saline: 150 mM NaCl • Trichloroacetic Acid (TCA): 50% (w/v) in water • Sulforhodamine B (SRB): 0.4% (w/v) in 1% Acetic Acid • Tris Base: 10 mM in water
(§3) Cells are plated at 2000 cells per well for cell line LoVo and 1500 cells for cell line CaCo-2 in 96 well plates. Cells are plated in media (200 µl) and allowed to adhere overnight at 37°C. At 24 hours post plating, compounds are added directly at a volume of 0.5 µl. For the qualitative screen (compounds screened at 25 µM) compound is added directly to cells. For the quantitative screen, compound is first diluted in DMSO to generate concentrations of compound or reference standard of: 1, 5, 10 and 25 µM. It is advisable to make the dilutions in an identical 96 well plate so that compounds can be added using a multichannel micropipettor set at 0.5 µl. The cells are then incubated for four days after which the media is removed using a 12 well manifold by first tipping the plate forward at a 45 degree angle and then inserting the manifold in an upright orientation to prevent the tips of the manifold from disturbing cells at the bottom of the plate. 200 µl of normal saline is then added to each well using an 8 well multichannel pipettor, followed by the careful addition of 50 µl of 50% TCA. The plates are then incubated for 2 hours at 4°C, after which the supernatant is removed using the same technique as above and the plated washed twice with 200 µl water. The plates are then air dried and 50 µl of SRB stock solution is carefully added so that the entire bottom of each well is covered. This again can be used using an 8 well multichannel pipettor. The SRB is incubated with fixed cells for 15 minutes at room temperature after which the SRB is removed with the manifold as described above and the plates washed twice with 350 µl of 1% acetic acid per well each time. The plates are then air dried after which the bound SRB is released from protein by the addition of 200 µl of Tris base. Resolubilizing the SRB is aided by placing the plates on a rotator for 15-30 minutes. The absorbance of each well is determined at 550 or 562 nm using a microtiter plate reader.
(§4) Each compound or dilution thereof is performed in triplicate. Outliers are identified by visual inspection of the data. Each plate should have a "0" control (vehicle only).
(§5) Quantitative Assay: A standard curve is constructed by plotting the concentration of compound against the average absorbance calculated at that concentration. […] Multiple entries for a given compound indicate that it is tested multiple times.

Experiment [2] concerns human adenocarcinoma cell line CaCo-2. The description is as above. Particulars: Caco-2, 96 h, four days incubation. As for the experimental part: as §2, §3, §4, §5

In general, IC50 refers to the midpoint of a concentration-inhibition curve. A lower IC50 goes with inhibition by little substance. With `COc1cc2cc3c(Nc4ccc(OCc5ccccc5)c(Cl)c4)c(C#N)cnc3cc2cc1OCCN1CCOCC1` [Example 218, 4-(4-Benzyloxy-3-chlorophenylamino)-7-methoxy-8-(2-morpholin-4-yl-ethoxy)benzo[g]quinoline-3-carbonitrile], the IC50 in the experiment on SK-BR3 worked out at 3.5 µg/mL (≈ 5.88 µM); in the experiment with SW620, 11.6 µg/mL (≈ 19.5 µM); in the experiment with MDA-MB-435 it was 33.5 µg/mL (≈ 56.3 µM); in the experiment with A431 it was 4.7 µg/mL (≈ 7.9 µM); in experiment [1], 0.43 µM; in experiment [2] it was 6 µM.

(Values after patent EP1242382B1, “TRICYCLIC PROTEIN KINASE INHIBITORS” (Wyeth, priority 1999, dated 2001).)
